Consider 20 molecules from patent US20100266674A1, “L-ODDC PRODRUGS FOR CANCER” (UNIVERSITY OF GEORGIA RESEARCH FOUNDATION, INC., priority 2006, published 2010).

The test system of data set [1] is A549 non-small cell lung cancer cell line. The experiment in a line: SRB chemosensitivity (cytotoxicity) assay, A549. It counts as cell-based. The following applies: SRB test, 72 h incubation, mean of 3 experiments. The procedure:
(§1) The compounds were evaluated on two non-small cell lung cancer cell lines (A549 and SW1573). These cell lines were characterized for deoxynucleoside analog sensitivity and activity of dCK previously.
(§2) The chemosensitivity assay used in this study was the sulforhodamineB (SRB) assay as described earlier (Keepers et al, Eur J. Cancer, 1991; Rubinstein et al, J. Natl. Cancer Inst., 1990). Cells were transferred to 96 wells plates on day 0; on day 1 a serial dilution of the drug was made from a stock solution and added to the cells in triplicate. After an incubation period of 72 h the cells were fixed for 1 hr at 4° C. with 50% trichloroacetic acid washed, air-dried and stained with 0.4% SRB. The optical density was measured at 492 nm with a microplate reader (Tecan, Salzburg, Austria).
(§3) The results were expressed as percentage of control growth: […]
(§4) The data were plotted in a graph to give a growth inhibition curve. From this growth inhibition curve the […] value was determined by interpolating at the 50% growth level. […] LogP was estimated using ChemDraw 8.0 ultra. IC50s are expressed as mean of 3 experiments.
Background: In SRB staining, fixed cells bind dye roughly in proportion to their protein.

Data set [2] has as its system SW1573 non-small cell lung cancer cell line. The experiment in a line: SRB chemosensitivity (cytotoxicity) assay, SW1573. The following applies: SRB test, 72 h incubation, mean of 3 experiments. It counts as cell-based. The procedure: as §1, §2, §3, §4
Data set [3] concerns Panc-02 pancreatic cancer cell line. The experiment in a line: SRB cytotoxicity assay, Panc-02. It counts as cell-based. The procedure:
(§5) Sensitivity to four prodrugs with linear aliphatic chains of different length was determined by the SRB cytotoxicity assay^[12], the IC50 value of the drug was determined in the different cell lines by interpolating the growth inhibition curves. The tests were performed on the BxPC-3 and Panc-02 pancreatic cancer cell lines.

In data set [4] the test system is BxPC-3 pancreatic cancer cell line. Description: SRB cytotoxicity assay, BxPC-3. It counts as cell-based. The following applies: BxPC-3 (BxPC3) pancreatic cancer cell line. The procedure: as §5
The test system of a further data set is A549. Description: SRB assay with addition of dipyridamole (role of ENT transport), A549. Format: cell-based. The following applies: A549, dipyridamole added to the cells. The source says:
These cell lines were chosen because they had been characterized earlier for sensitivity to gemcitabine and for the activity of the rate-limiting enzyme in the activation of gemcitabine and troxacitabine, deoxycytidine kinase (dCK); […] In addition, non-small cell lung cancer is routinely being treated with gemcitabine containing regimens. […] It should be noted that it is unlikely that they are being phosphorylated as prodrugs due to their steric hindrance. […] In a cell line we tested whether transport (ENT) would play a role by addition of dipyridamole to the cells. In A549 dipyridamole gave a 2-fold increase in the IC50, but this was not observed for the prodrugs. […] It is likely that these cycloalkyl and aromatic moieties at the N4 position of compounds 6l-t may render these compounds poor substrates of intracellular amidases. We therefore speculate that the amidase-catalyzed hydrolysis of the prodrugs may play an important role, allowing the release of troxacitabine into the intracellular compartment for activation (the triphosphate). The better activity profile of prodrugs 6h-k could have been the result of an increased uptake due to the high lipophilicity as well as of a high rate of amidase-catalyzed cleavage of the linear aliphatic derivatives intracellularly.

For data set [5] the following is noted: cited from earlier work.

Turning to `CC(=O)Nc1ccn([C@@H]2CO[C@H](CO)O2)c(=O)n1` [Compound 6a, (−)-(2S,4S)-1-[2-(Hydroxymethyl)-1,3-dioxolan-4-yl]-4-N-acetyl-cytosine], the IC50 (as a rule, the concentration at which inhibition is half-maximal) in data set [1] (Homo sapiens, A549) worked out at 6.87 µM; in data set [2] (Homo sapiens, SW1573) it was 10.7 µM.
`CCCC(=O)Nc1ccn([C@@H]2CO[C@H](CO)O2)c(=O)n1` [Compound 6c, (−)-(2S,4S)-1-[2-(Hydroxymethyl)-1,3-dioxolan-4-yl]-4-N-butirryl-cytosine]: the IC50 in data set [1] was determined as 6.6 µM; in data set [2] it was 8.07 µM.
`CCCCC(=O)Nc1ccn([C@@H]2CO[C@H](CO)O2)c(=O)n1` [Compound 6e, (−)-(2S,4S)-1-[2-(Hydroxymethyl)-1,3-dioxolan-4-yl]-4-N-valeryl-cytosine]: the IC50 in data set [1] (Homo sapiens, A549) was 5.23 µM; in data set [2] (Homo sapiens, SW1573), 9.13 µM.
For the molecule `CCCCCCC(=O)Nc1ccn([C@@H]2CO[C@H](CO)O2)c(=O)n1` [Compound 6g, (−)-(2S,4S)-1-[2-(Hydroxymethyl)-1,3-dioxolan-4-yl]-4-N-heptanoyl-cytosine], the IC50 in data set [1] (Homo sapiens, A549) stood at 1.04 µM; in data set [2] (Homo sapiens, SW1573), 2.4 µM.
The corresponding values for `CCCCCCCCC(=O)Nc1ccn([C@@H]2CO[C@H](CO)O2)c(=O)n1` [Compound 6h, (−)-(2S,4S)-1-[2-(Hydroxymethyl)-1,3-dioxolan-4-yl]-4-N-nonanoyl-cytosine] are 0.046 µM and 0.276 µM.
For `CCCCCCCCCC(=O)Nc1ccn([C@@H]2CO[C@H](CO)O2)c(=O)n1` [Compound 6i, (−)-(2S,4S)-1-[2-(Hydroxymethyl)-1,3-dioxolan-4-yl]-4-N-decanoyl-cytosine], the melting point (commonly the temperature, or range, at which the solid turns liquid) was in the range of 141 to 143 °C. For the same molecule, the IC50 in data set [1] (Homo sapiens, A549) worked out at 0.024 µM. For the same molecule, inhibition in data set [2] (Homo sapiens, SW1573) was half-maximal at 0.04 µM (IC50). The “enhancement of sensitivity compared to troxacitabine” value in data set [3] was 1400 fold.
In the case of `CCCCCCCCCCCCNc1ccn([C@@H]2CO[C@H](CO)O2)c(=O)n1` [Compound 6j, (−)-(2S,4S)-1-[2-(Hydroxymethyl)-1,3-dioxolan-4-yl]-4-N-lauryl-cytosine], the IC50 in data set [1] (Homo sapiens, A549) was found to be 0.015 µM; in data set [2] (Homo sapiens, SW1573), 0.033 µM. Further, the “decrease in IC50 / enhancement of sensitivity compared to troxacitabine” value in data set [4] came to 160 fold.
As for `CCCCCCCCCCCCCCCC(=O)Nc1ccn([C@@H]2CO[C@H](CO)O2)c(=O)n1` [Compound 6k, (−)-(2S,4S)-1-[2-(Hydroxymethyl)-1,3-dioxolan-4-yl]-4-N-palmitoyl-cytosine], the IC50 in data set [1] (Homo sapiens, A549) is 0.004 µM; in data set [2] (Homo sapiens, SW1573), 0.02 µM.
For `O=c1nc(NC2CC2)ccn1[C@@H]1CO[C@H](CO)O1` [Compound 6l, (−)-(2SAS)-1-[2-(Hydroxymethyl)-1,3-dioxolan-4-yl]-4-N-cyclopropyl-cytosine], the IC50 amounted to 18.7 µM in data set [1] and 22 µM in data set [2].
`O=c1nc(NC2CCCC2)ccn1[C@@H]1CO[C@H](CO)O1` [Compound 6m, (−)-(2S,4S)-1-[2-(Hydroxymethyl)-1,3-dioxolan-4-yl]-4-N-cyclopentyl-cytosine]: the IC50 in data set [1] (Homo sapiens, A549) came to 2.97 µM; in data set [2] (Homo sapiens, SW1573) it was 8.8 µM.
In the same order, the values of `O=c1nc(NC2CCCCC2)ccn1[C@@H]1CO[C@H](CO)O1` [Compound 6n, (−)-(2S,4S)-1-[2-(Hydroxymethyl)-1,3-dioxolan-4-yl]-4-N-cyclohexyl-cytosine] are 7.37 µM and 14 µM.
On to `O=C(Nc1ccn([C@@H]2CO[C@H](CO)O2)c(=O)n1)c1ccccc1` [Compound 6o, (−)-(2S,4S)-1-[2-(Hydroxymethyl)-1,3-dioxolan-4-yl]-4-N-benzoyl-cytosine], for which the IC50 in data set [1] (Homo sapiens, A549) stood at 8.53 µM; in data set [2] (Homo sapiens, SW1573), 13.7 µM.
As to `O=C(Nc1ccn([C@@H]2CO[C@H](CO)O2)c(=O)n1)c1ccc(F)cc1` [Compound 6p, (−)-(2S,4S)-1-[2-(Hydroxymethyl)-1,3-dioxolan-4-yl]-4-N-(p-fluorobenzoyl)-cytosine], the IC50 stood at 8.67 µM in data set [1] (Homo sapiens, A549) and 15.3 µM in data set [2] (Homo sapiens, SW1573).
For the molecule `O=C(Nc1ccn([C@@H]2CO[C@H](CO)O2)c(=O)n1)c1ccc(Cl)cc1` [Compound 6q, (−)-(2S,4S)-1-[2-(Hydroxymethyl)-1,3-dioxolan-4-yl]-4-N-(p-chlorobenzoyl)-cytosine], the IC50 in data set [1] (Homo sapiens, A549) turned out to be 0.41 µM; in data set [2] (Homo sapiens, SW1573) it was 2.77 µM.
Turning to `O=C(Nc1ccn([C@@H]2CO[C@H](CO)O2)c(=O)n1)c1ccc(Br)cc1` [Compound 6r, (−)-(2S,4S)-1-[2-(Hydroxymethyl)-1,3-dioxolan-4-yl]-4-N-(p-bromobenzoyl)-cytosine], the IC50 in data set [1] (Homo sapiens, A549) is 4.53 µM; in data set [2] (Homo sapiens, SW1573) it was 8.87 µM.
The corresponding values for `COc1ccc(C(=O)Nc2ccn([C@@H]3CO[C@H](CO)O3)c(=O)n2)cc1` [Compound 6s, (−)-(2S,4S)-1-[2-(Hydroxymethyl)-1,3-dioxolan-4-yl]-4-N-(p-methoxybenzoyl)-cytosine] are 3.5 µM and 10 µM.
In turn, `O=C(Nc1ccn([C@@H]2CO[C@H](CO)O2)c(=O)n1)c1ccc(Cl)cc1Cl` [Compound 6t, (−)-(2S,4S)-1-[2-(Hydroxymethyl)-1,3-dioxolan-4-yl]-4-N-(2,4-dichlorobenzoyl)-cytosine] registered a melting point of 185 to 187 °C. Moreover, the IC50 in data set [1] (Homo sapiens, A549) is 9.83 µM. The same molecule registered an IC50 in data set [2] (Homo sapiens, SW1573) of 14.3 µM.
With `Nc1ccn([C@@H]2O[C@H](CO)[C@@H](O)[C@@H]2O)c(=O)n1` [Cytarabine, reference compound], the IC50 in data set [1] (Homo sapiens, A549) came to 0.62 µM; in data set [2] (Homo sapiens, SW1573), 10.5 µM.
As to `Nc1ccn([C@@H]2O[C@H](CO)[C@@H](O)C2(F)F)c(=O)n1` [Gemcitabine, reference compound], the concentration for half-maximal inhibition (IC50) was determined as 0.013 µM in data set [1] (Homo sapiens, A549) and 0.008 µM in data set [2] (Homo sapiens, SW1573).
As to `Nc1ccn([C@@H]2CO[C@H](CO)O2)c(=O)n1` [Troxacitabine, (−)-2′-deoxy-3′-oxacytidine, reference compound], the IC50 came out at 0.68 µM in data set [1] (Homo sapiens, A549) and 2.3 µM in data set [2] (Homo sapiens, SW1573). In the data set with A549, the “increase in the IC50 by dipyridamole” value was found to be 2 fold. The plasma half-life in data set [5] is 82 h.
